Assay [1] has as its system Caco-2 cells. The experiment in a line: Transepithelial resistance (TER) of Caco-2 monolayers. Type of assay: cell-based, human. The method, then: (§1) Caco-2 cells were grown close to confluence, and T84 cells were grown to confluence. The apical chambers of transwell plates with 6.5 mm diameter and 3 μm pore size filters were pretreated with 50 μl of 45 μg/ml collagen IV in 60% ethanol 24 hours prior to plating and incubated overnight at room temperature. After reaching confluence, cells were washed with 20 ml PBS and treated with 3.5 ml trypsin-EDTA per 175 cm^2 flask for 20-60 min at 37° C. until cells detached. Cells were resuspended in 16.5 ml media appropriate to the cell type. Each apical chamber was supplemented with 82 μl cell solution. The basolateral chamber was filled with 1 ml propagation media. Filters were fed with new media every two days over the course of experiments.
(§2) Caco-2 and T84 cells were allowed to grow on transwells to form monolayers. Monolayer formation was examined every other day by light microscopy as well as by transepithelial resistance (TER) measurements using an EVOM ohmmeter (World Precision Instruments, Sarasota, Fla.). After monolayer formation, cells were treated with 100 ng/ml FGF1, 100 ng/ml FGF2, 100 ng/ml FGF7 or an equivalent volume (10 μl) of PBS. TER measurements were made either after 72 hours or at each of the 30 minutes, 1 hour, 2 hours, 4 hours, 9 hours, 24 hours and 48 hours timepoints. To determine the effects of multiple additions of ligand, FGFs or PBS were added initially and again after 2 days, and TER measurements were made after 0, 2 and 5 days.
(§3) To probe the mechanism by which various FGFs induced cell mediated effects, various media treatments were employed. Ammonium tetrathiomolybdate (TM) was added 24 hours prior to the addition of ligands to yield a final concentration of 200 μM, sufficient to prevent the release of FGF1 [3]. Similarly, sodium chlorate, which reduces cell HSPGs and the sulfation of associated HSGAGs, was added 24 hours prior to the addition of ligands to yield a final concentration of 50 mM [33,34]. Antibodies and kinase inhibitors were added immediately prior to ligands. Antibodies to FGF1, FGFR1 and FGFR3 were added at a 1:100 dilution. Kinase inhibitors were added to yield final concentrations of 50 μM LY294002, 20 μM PD98059, 1 μM SB203580. All experiments were performed in triplicate.
Caco-2 cells were grown to just prior to confluency. The apical chambers of transwell plates with 6.5 mm diameter and 3 μm pore size filters were pretreated with 50 μl of 45 μg/ml mouse recombinant collagen IV (BD Biosciences, Bedford, Mass.) in 60% ethanol 24 hours prior to plating. Plates were incubated overnight at room temperature. Just prior to confluency, cells were washed with 20 ml phosphate buffered saline (PBS) and treated with 3.5 ml trypsin-EDTA per 175 cm^2 flask for 20-60 min at 37° C., until cells detached. Cells were resuspended in 16.5 ml media appropriate to the cell type. Each apical chamber was supplemented with 82 μl cell solution. The basolateral chamber was filled with 1 ml propagation media. Filters were fed with new media every two days over the course of experiments.
Caco-2 cells were allowed to grow on transwells to form monolayers. Monolayer formation was examined every other day by light microscopy as well as by TER measurements using an EVOM ohmmeter (World Precision Instruments, Sarasota, Fla.). After monolayer formation, cells were treated with 100 ng/ml recombinant human FGF1 (Amgen, Thousand Oaks, Calif.), 100 ng/ml recombinant human FGF2 [1], 100 ng/ml recombinant human FGF7 (Sigma, St. Louis, Mo.), or an equivalent volume (10 μl) of PBS. TER measurements were made after each of 30 minutes, 1 hour, 2 hours, 4 hours, 9 hours, 24 hours and 48 hours.
To probe the mechanism by which various FGFs induced cellular mediated effects, various media treatments were employed. TM was added 24 hours prior to the addition of ligands to yield a final concentration of 200 μM, sufficient to prevent the release of FGF1 [3]. […]

Assay [2] has as its system T84 cells. Briefly: Transepithelial resistance (TER) of T84 monolayers. Type of assay: cell-based, human. To be noted: agent given before or with 100 ng/ml FGFs (TM 200 μM, sodium chlorate 50 mM, LY294002 50 μM, antibodies 1:100). The method, then:
as §1, §2, §3

Assay [3] concerns FGF1. Briefly: Immunohistochemistry for FGF1 in Caco-2 cells. Type of assay: cell-based, human. To be noted: 200 μM TM for 24 hours. The method, then:
(§4) To determine FGFR and FGF1 expression, Caco-2 cells were grown to just prior to confluence, and T84 cells were grown to confluence on collagen-coated glass slides. Cells were washed with PBS supplemented with 5% BSA. To stain for FGFR3, rabbit anti-human FGFR3 antibodies were added to cells at a 1:500 dilution and incubated for 1 hour. Cells were washed with PBS supplemented with 5% BSA, and FITC-conjugated goat anti-rabbit antibodies were added and incubated for 30 minutes. Cells were washed with BSA-PBS and examined using fluorescence microscopy. For FGF1 analysis, cells were treated with 200 μM TM or 10 μl PBS for 24 hours, formalin fixed, treated with goat anti-human FGF1 antibodies at a 1:200 dilution and incubated for 4 hours. Cells were washed with PBS supplemented with 5% BSA, and Texas red-conjugated donkey anti-goat antibodies were added and incubated for 1 hour. Cells were washed with BSA-PBS and examined using fluorescence microscopy.

The subject of assay [4] is FGF1. Briefly: Immunohistochemistry for FGF1 in T84 cells. Type of assay: cell-based, human. To be noted: 200 μM TM for 24 hours. On the procedure:
as §4

The subject of assay [5] is Caco-2 cells. The experiment in a line: Caco-2 proliferation assay (whole cell number). Type of assay: cell-based, human. To be noted: TM 200 μM, FGF1 added to TM treated cells. On the procedure:
(§5) Caco-2 cells were grown to just prior to confluence, and T84 cells were grown to confluence. Each flask was washed with 20 ml PBS and treated with 3 ml trypsin-EDTA at 37° C. for 20-60 minutes until cells detached. Cells were centrifuged for 3 minutes at 195×g. The supernatant was aspirated, and the cells were resuspended in 10 ml media. The cell density was measured using an electronic cell counter, and the suspension was diluted to 50,000 cells/ml. The suspension was plated at 1 ml/well into 12-well tissue culture plates. After a 24 hour incubation in a 5% CO2, 37° C. humidified incubator, the media was aspirated, the wells were washed with serum free media, and the cells were supplemented with media containing 0.1% FBS. The wells were then supplemented with 10 μl PBS, 50 mM sodium chlorate, or 200 μM TM, and incubated for 24 hours. Subsequently, cells were supplemented with 100 ng/ml FGF1, FGF2, FGF7, or 10 μl PBS, and incubated for 72 hours. Wells were then washed twice with PBS and treated with 0.5 ml trypsin-EDTA/well and incubated at 37° C. until cells detached. Whole cell number was determined using an electronic cell counter. Data was averaged over three experiments, each consisting of four wells per condition.

Assay [6] concerns T84 cells. Briefly: T84 proliferation assay (whole cell number). Type of assay: cell-based, human. To be noted: TM 200 μM, FGF1 added to TM treated cells. On the procedure: as §5
The target in assay [7] is FGFR3b expressed by Caco-2 and T84 cells (human) (UniProt P22607). The experiment in a line: cell-based or functional assay.
Where [8] appears, read: cell line not stated (Caco-2 and T84 cells studied), PD98059 20 μM, SB203580 1 μM, LY294002 50 μM, antibodies 1:100.
Where [9] appears, read: Caco-2 cells, agent given before or with 100 ng/ml FGFs (TM 200 μM, sodium chlorate 50 mM, LY294002 50 μM, PMA 100 ng/ml, antibodies 1:100).

“Also recorded” adds a separate entry of the source.

Sequence of UniProt P22607 (P22607 23-806): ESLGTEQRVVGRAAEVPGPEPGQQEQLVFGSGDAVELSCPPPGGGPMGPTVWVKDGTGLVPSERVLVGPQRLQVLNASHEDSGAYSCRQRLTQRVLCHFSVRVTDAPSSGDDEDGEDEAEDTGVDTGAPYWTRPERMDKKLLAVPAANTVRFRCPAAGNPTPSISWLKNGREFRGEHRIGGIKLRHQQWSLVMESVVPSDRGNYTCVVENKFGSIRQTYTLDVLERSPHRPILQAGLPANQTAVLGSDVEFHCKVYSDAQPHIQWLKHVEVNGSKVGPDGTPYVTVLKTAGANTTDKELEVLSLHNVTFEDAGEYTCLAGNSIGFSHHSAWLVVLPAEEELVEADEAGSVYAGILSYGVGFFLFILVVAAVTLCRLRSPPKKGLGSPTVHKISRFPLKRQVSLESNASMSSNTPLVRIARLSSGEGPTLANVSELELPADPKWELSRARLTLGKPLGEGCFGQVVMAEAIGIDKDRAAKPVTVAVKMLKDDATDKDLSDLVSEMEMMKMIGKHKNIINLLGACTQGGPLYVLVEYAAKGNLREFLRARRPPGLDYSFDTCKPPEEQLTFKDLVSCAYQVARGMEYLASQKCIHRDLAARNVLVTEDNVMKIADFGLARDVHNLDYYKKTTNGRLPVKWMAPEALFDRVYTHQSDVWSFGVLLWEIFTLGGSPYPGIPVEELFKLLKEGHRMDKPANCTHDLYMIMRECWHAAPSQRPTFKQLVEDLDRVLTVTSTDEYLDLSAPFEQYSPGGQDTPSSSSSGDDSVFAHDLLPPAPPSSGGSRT

`COc1cccc(-c2cc(=O)c3ccccc3o2)c1N` [PD98059, reference compound]: the “effect of added agent on FGF-induced reduction in TER” value in the assay with Caco-2 cells [1] (setting [8]) is given as “failed to eliminate the ligand mediated inhibition of TER”.

On to `CCCCCCCCCCCCCC(=O)O[C@@H]1[C@@H](C)[C@@]2(O)[C@@H](C=C(CO)C[C@]3(O)C(=O)C(C)=C[C@@H]23)[C@@H]2C(C)(C)[C@]12OC(C)=O` [PMA, phorbol 12-myristate 13-acetate, reference compound], for which the “effect of added agent on FGF-induced reduction in TER” value with Caco-2 cells [1] (setting [9]) was “prevented FGF2 and FGF7 activity, but not that of FGF1”.

Take `C[S+]([O-])c1ccc(-c2nc(-c3ccncc3)c(-c3ccc(F)cc3)[nH]2)cc1` (stereo not shown) [SB203580, reference compound]: the “effect of added agent on FGF-induced reduction in TER” value in the assay on Caco-2 cells [1] (setting [8]) is “failed to eliminate the ligand mediated inhibition of TER”.

For `[Na+].[O-][Cl+2]([O-])[O-]` [Sodium chlorate, sodium chlorate, reference compound], the “effect of added agent on FGF-induced reduction in TER” value in the assay with Caco-2 cells [1] (setting [9]) is on record as “eliminated the ability; also recorded: abrogated the ability”; with T84 cells [2], “eliminated the ability”.

In the case of `[NH4+].[NH4+].[SH-].[SH-].[S]=[Mo]=[S]` [TM, Ammonium tetrathiomolybdate, reference compound], the “distribution of FGF1” value with FGF1 [3] and with FGF1 [4] was “retaining FGF1 closer to the nucleus” in each case. Moreover, the “effect of added agent on FGF-induced reduction in TER” value in the assay with Caco-2 cells [1] (setting [9]) was “abrogated the reduction in TER induced by FGF2”; in the assay on T84 cells [2] it was “prevented”. Further, the “effect of added agent on proliferative effect of FGF2 and FGF7” value was “eliminated the proliferative effect of FGF2 and FGF7” with Caco-2 cells [5]; “eliminated the proliferative effect of FGF2 and FGF7” in the assay with T84 cells [6].

Consider “Boiled FGF1: FGF1 that was boiled, used as control in the TER test”, for which the “reduction of TER (in words)” value in the assay on Caco-2 cells [1] (cell line not stated (Caco-2 and T84 cells studied)) is “did not reduce TER”.

In assay [7], “Recombinant human FGF1 (from UniProt P05230 16-155) (ligand)” showed an inhibition of increases in TER over three days, Caco-2 cells of 35.1%; an inhibition of increases in TER over three days, T84 cells of 30.1%; a reduction of TER at 48 hours, Caco-2 cells of 45.1%; a reduction of TER at 48 hours, T84 cells of 22.7%.
